Test results from patent publication US6737383B1, “Herbicidal oxadiazolidines” (priority 1999, dated 2004).

Columns and labels:
rape = assay: Test B pre/postemergence rape; type: in vivo, Brassica napus
How it was run: (§1)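 Herbicidal effect was estimated by eye on a ten-point control scale after plants spent twelve to sixteen days in a greenhouse following soil or foliar treatment. Foliar sprays targeted plants at one to four leaves; all doses were formulated in a non-phytotoxic solvent with surfactant.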

velvetleaf = assay: Test B pre/postemergence velvetleaf; type: in vivo, Abutilon theophrasti
How it was run: as §1

wheat = assay: Test B pre/postemergence wheat; type: in vivo, Triticum aestivum
How it was run: as §1

bamyardgrass = assay: Test B flood test barnyardgrass; type: in vivo, Echinochloa crus-galli
How it was run: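 Each value is a visual injury score relative to controls, with 10 meaning complete control and 0 no effect. Evaluation took place twelve to sixteen days after the 2-leaf-stage plants were treated and kept in the greenhouse.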

winter wheat [1] = assay: Test E winter wheat; type: in vivo, Triticum aestivum; details: Postemergence; for Wheat (winter) plant response rating: Rate 250 g/ha
How it was run: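 For postemergence, plants at the 1- to 4-leaf stage, in a 60:40 mix of sandy loam and potting mix, treated with compound formulated in a surfactant-containing non-phytotoxic solvent. Visual assessment versus untreated controls followed roughly 21–28 days in the greenhouse.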

blackgrass = assay: Test E blackgrass; type: in vivo, Alopecurus myosuroides; details: Preemergence; for Blackgrass plant response rating (0 to 100 scale): Rate 250 g/ha
green foxtail = assay: Test E green foxtail; type: in vivo, Setaria viridis; details: Preemergence; for Green foxtail plant response rating (0 to 100 scale): Rate 250 g/ha
Italian ryegrass = assay: Test E Italian ryegrass; type: in vivo, Lolium multiflorum; details: Preemergence; for I. Ryegrass plant response rating (0 to 100 scale): Rate 250 g/ha
winter wheat [2] = assay: Test E winter wheat; type: in vivo, Triticum aestivum; details: Preemergence; for Wheat (winter) plant response rating (0 to 100 scale): Rate 250 g/ha
wild oat = assay: Test E wild oat; type: in vivo, Avena fatua; details: Preemergence; for Wild oat plant response rating (0 to 100 scale): Rate 250 g/ha
winter barley = assay: Test E winter barley; type: in vivo, Hordeum vulgare; details: Preemergence; for Barley (winter) plant response rating (0 to 100 scale): Rate 250 g/ha
[3] = Preemergence, Rate 62 g/ha, scale of 0 to 10 where 0 is no effect and 10 is complete control
[4] = Preemergence, Rate 250 g/ha, scale of 0 to 10 where 0 is no effect and 10 is complete control
[5] = Preemergence, Rate 500 g/ha, scale of 0 to 10 where 0 is no effect and 10 is complete control
[6] = Rate 62 g/ha, Postemergence, scale 0 to 10 (0 no effect, 10 complete control)
[7] = Rate 125 g/ha, Postemergence, scale of 0 to 10 where 0 is no effect and 10 is complete control
[8] = Rate 250 g/ha, Postemergence, scale of 0 to 10 where 0 is no effect and 10 is complete control
[9] = Rate 500 g/ha, Postemergence, scale 0 to 10, 0 no effect, 10 complete control
[10] = Rate 125 g/ha, Preemergence, scale of 0 to 10 where 0 is no effect and 10 is complete control
[11] = Rate 62 g/ha, headed Pre-emergence (flood test species), scale 0 to 10 (0 no effect, 10 complete control)
[12] = Rate 125 g/ha, Pre-emergence, flood test species, scale 0 to 10 where 0 is no effect and 10 is complete control
[13] = Rate 250 g/ha, Pre-emergence, flood-test species, scale 0 to 10, 0 is no effect, 10 is complete control
[14] = Rate 500 g/ha, Pre-emergence, flood test species, scale 0 to 10 (0 no effect, 10 complete control)
[15] = Rate 1000 g/ha, 0 to 100 scale where 0 is no effect and 100 is complete control
[16] = 0 to 100 scale where 0 is no effect and 100 is complete control
[17] = Rate 500 g/ha, 0 to 100 scale, 0 is no effect, 100 is complete control
[18] = Rate 500 g/ha, 0 to 100 scale (0 no effect, 100 complete control)
[19] = Rate 1000 g/ha, 0 to 100 scale, 0 no effect, 100 complete control
[20] = Postemergence, Rate 31 g/ha, visual rating, scale 0 to 10 (0 no effect, 10 complete control)
[21] = Preemergence, Rate 31 g/ha, visual rating, scale 0 to 10 (0 no effect, 10 complete control)
[22] = Rate 16 g/ha, Postemergence, scale 0 to 10, 0 no effect, 10 complete control
[23] = Rate 16 g/ha, Preemergence, scale 0 to 10, 0 no effect, 10 complete control
[24] = Rate 125 g/ha, 0 to 100 scale (0 no effect, 100 complete control)

CC(C)N(C(=O)n1oc(=O)n(C2CCCC2)c1=O)c1ccccc1 [Compound 283]
Rape plant response rating (rape; [3]): 0 | Rape plant response rating (rape; [4]): 2 | Plant response rating, Rape (rape; [5]): 8 | Rape plant response rating (rape; [6]): 2 | Rape plant response rating (rape; [7]): 3 | Plant response rating, Rape (rape; [8]): 4 | Rape plant response rating (rape; [9]): 7 | Velvetleaf plant response rating (velvetleaf; [3]): 0 | Velvetleaf plant response rating (velvetleaf; [4]): 5 | Plant response rating, Velvetleaf (velvetleaf; [5]): 7 | Velvetleaf plant response rating (velvetleaf; [6]): 0 | Velvetleaf plant response rating (velvetleaf; [7]): 0 | Velvetleaf plant response rating (velvetleaf; [10]): 2 | Plant response rating, Velvetleaf (velvetleaf; [8]): 1 | Velvetleaf plant response rating (velvetleaf; [9]): 3 | Wheat plant response rating (wheat; [3]): 0 | Wheat plant response rating (wheat; [4]): 1 | Plant response rating, Wheat (wheat; [5]): 6 | Wheat plant response rating (wheat; [6]): 0 | Wheat plant response rating (wheat; [7]): 0 | Wheat plant response rating (wheat; [10]): 0 | Plant response rating, Wheat (wheat; [8]): 0 | Wheat plant response rating (wheat; [9]): 0 | Barnyardgrass plant response rating (bamyardgrass; [11]): 0 | Barnyardgrass plant response rating (bamyardgrass; [12]): 3 | Barnyardgrass plant response rating (bamyardgrass; [13]): 6 | Barnyardgrass plant response rating (bamyardgrass; [14]): 6 | Plant response rating, Wheat (winter) (winter wheat [1]; [15]): 75 | Wheat (winter) plant response rating (winter wheat [1]; [16]): 60 | Plant response rating, Wheat (winter) (winter wheat [1]; [17]): 50 | Blackgrass plant response rating (0 to 100 scale) (blackgrass): 50 | Plant response rating, Blackgrass (blackgrass; [18]): 60 | Plant response rating, Blackgrass (blackgrass; [19]): 85 | Green foxtail plant response rating (0 to 100 scale) (green foxtail): 100 | Plant response rating, Green foxtail (green foxtail; [18]): 100 | Plant response rating, Green foxtail (green foxtail; [19]): 100 | I. Ryegrass plant response rating (0 to 100 scale) (Italian ryegrass): 70 | Plant response rating, I. Ryegrass (Italian ryegrass; [18]): 90 | Plant response rating, I. Ryegrass (Italian ryegrass; [19]): 98 | Wheat (winter) plant response rating (0 to 100 scale) (winter wheat [2]): 50 | Plant response rating, Wheat (winter) (winter wheat [2]; [18]): 65 | Plant response rating, Wheat (winter) (winter wheat [2]; [19]): 80 | Wild oat plant response rating (0 to 100 scale) (wild oat): 65 | Plant response rating, Wild oat (wild oat; [18]): 50 | Plant response rating, Wild oat (wild oat; [19]): 70 | Barley (winter) plant response rating (0 to 100 scale) (winter barley): 60 | Plant response rating, Barley (winter) (winter barley; [18]): 75 | Plant response rating, Barley (winter) (winter barley; [19]): 80

CCCCCn1c(=O)on(C(=O)N(c2ccc(F)cc2)C(C)C)c1=O [Compound 290]
Rape plant response rating (rape; [20]): 0 | Rape plant response rating (rape; [21]): 0 | Rape plant response rating (rape; [3]): 0 | Rape plant response rating (rape; [22]): 0 | Rape plant response rating (rape; [23]): 0 | Rape plant response rating (rape; [6]): 0 | Rape plant response rating (rape; [7]): 0 | Rape plant response rating (rape; [10]): 0 | Velvetleaf plant response rating (velvetleaf; [20]): 0 | Velvetleaf plant response rating (velvetleaf; [21]): 0 | Velvetleaf plant response rating (velvetleaf; [3]): 0 | Velvetleaf plant response rating (velvetleaf; [22]): 0 | Velvetleaf plant response rating (velvetleaf; [23]): 0 | Velvetleaf plant response rating (velvetleaf; [6]): 0 | Velvetleaf plant response rating (velvetleaf; [7]): 0 | Velvetleaf plant response rating (velvetleaf; [10]): 0 | Wheat plant response rating (wheat; [20]): 0 | Wheat plant response rating (wheat; [21]): 0 | Wheat plant response rating (wheat; [3]): 0 | Wheat plant response rating (wheat; [22]): 0 | Wheat plant response rating (wheat; [23]): 0 | Wheat plant response rating (wheat; [6]): 0 | Wheat plant response rating (wheat; [7]): 0 | Wheat plant response rating (wheat; [10]): 0 | Barnyardgrass plant response rating (bamyardgrass; Rate 16 g/ha, head printed Pre-emergence (flood test species), scale 0 to 10, 0 no effect, 10 complete control): 0 | Barnyardgrass plant response rating (bamyardgrass; Rate 31 g/ha, Pre-emergence section (flood test species), scale 0 to 10): 6 | Barnyardgrass plant response rating (bamyardgrass; [11]): 3 | Barnyardgrass plant response rating (bamyardgrass; [12]): 4 | Barnyardgrass plant response rating (bamyardgrass; [13]): 4 | Barnyardgrass plant response rating (bamyardgrass; [14]): 5 | Plant response rating, Wheat (winter) (winter wheat [1]; [15]): 70 | Wheat (winter) plant response rating (winter wheat [1]; [16]): 50 | Plant response rating, Wheat (winter) (winter wheat [1]; [17]): 60 | Blackgrass plant response rating (0 to 100 scale) (blackgrass): 60 | Plant response rating, Blackgrass (blackgrass; [18]): 70 | Plant response rating, Blackgrass (blackgrass; [19]): 95 | Green foxtail plant response rating (0 to 100 scale) (green foxtail): 65 | Plant response rating, Green foxtail (green foxtail; [18]): 70 | Plant response rating, Green foxtail (green foxtail; [19]): 85 | I. Ryegrass plant response rating (0 to 100 scale) (Italian ryegrass): 60 | Plant response rating, I. Ryegrass (Italian ryegrass; [18]): 70 | Plant response rating, I. Ryegrass (Italian ryegrass; [19]): 90 | Wheat (winter) plant response rating (0 to 100 scale) (winter wheat [2]): 10 | Plant response rating, Wheat (winter) (winter wheat [2]; [18]): 30 | Plant response rating, Wheat (winter) (winter wheat [2]; [19]): 50 | Wild oat plant response rating (0 to 100 scale) (wild oat): 60 | Plant response rating, Wild oat (wild oat; [18]): 70 | Plant response rating, Wild oat (wild oat; [19]): 70 | Barley (winter) plant response rating (0 to 100 scale) (winter barley): 55 | Plant response rating, Barley (winter) (winter barley; [18]): 60 | Plant response rating, Barley (winter) (winter barley; [19]): 70

COCn1c(=O)on(C(=O)N(c2ccc(F)cc2)C(C)C)c1=O [Compound 293]
Rape plant response rating (rape; [3]): 0 | Rape plant response rating (rape; [4]): 8 | Plant response rating, Rape (rape; [5]): 10 | Rape plant response rating (rape; [6]): 0 | Rape plant response rating (rape; [7]): 0 | Rape plant response rating (rape; [10]): 6 | Plant response rating, Rape (rape; [8]): 0 | Velvetleaf plant response rating (velvetleaf; [3]): 4 | Velvetleaf plant response rating (velvetleaf; [4]): 7 | Plant response rating, Velvetleaf (velvetleaf; [5]): 8 | Velvetleaf plant response rating (velvetleaf; [6]): 0 | Velvetleaf plant response rating (velvetleaf; [7]): 2 | Velvetleaf plant response rating (velvetleaf; [10]): 4 | Plant response rating, Velvetleaf (velvetleaf; [8]): 2 | Wheat plant response rating (wheat; [3]): 2 | Wheat plant response rating (wheat; [4]): 8 | Plant response rating, Wheat (wheat; [5]): 9 | Wheat plant response rating (wheat; [6]): 2 | Wheat plant response rating (wheat; [7]): 6 | Wheat plant response rating (wheat; [10]): 7 | Plant response rating, Wheat (wheat; [8]): 7 | Barnyardgrass plant response rating (bamyardgrass; [11]): 0 | Barnyardgrass plant response rating (bamyardgrass; [12]): 0 | Barnyardgrass plant response rating (bamyardgrass; [13]): 0 | Barnyardgrass plant response rating (bamyardgrass; [14]): 5 | Plant response rating, Wheat (winter) (winter wheat [1]; Rate 125 g/ha, 0 to 100 scale, 0 is no effect, 100 is complete control): 50 | Wheat (winter) plant response rating (winter wheat [1]; [16]): 30 | Plant response rating, Wheat (winter) (winter wheat [1]; [17]): 50 | Plant response rating, Blackgrass (blackgrass; [24]): 40 | Plant response rating, Blackgrass (blackgrass; [18]): 50 | Plant response rating, Green foxtail (green foxtail; [24]): 55 | Green foxtail plant response rating (0 to 100 scale) (green foxtail): 70 | Plant response rating, Green foxtail (green foxtail; [18]): 60 | Plant response rating, I. Ryegrass (Italian ryegrass; [24]): 30 | I. Ryegrass plant response rating (0 to 100 scale) (Italian ryegrass): 50 | Plant response rating, I. Ryegrass (Italian ryegrass; [18]): 50 | Plant response rating, Wheat (winter) (winter wheat [2]; [24]): 40 | Wheat (winter) plant response rating (0 to 100 scale) (winter wheat [2]): 50 | Plant response rating, Wheat (winter) (winter wheat [2]; [18]): 55 | Plant response rating, Wild oat (wild oat; [24]): 0 | Wild oat plant response rating (0 to 100 scale) (wild oat): 10 | Plant response rating, Wild oat (wild oat; [18]): 50 | Plant response rating, Barley (winter) (winter barley; [24]): 40 | Barley (winter) plant response rating (0 to 100 scale) (winter barley): 40 | Plant response rating, Barley (winter) (winter barley; [18]): 50
